Reference: US8404713B2, “Quinolinone derivatives as PARP inhibitors” (Janssen Pharmaceutica NV, priority 2007, dated 2013)
Structures can show the parent of a compound that is named as a salt.

Legend:
Human PARP-1 enzyme = target: T1, Human PARP-1 enzyme (Homo sapiens, UniProt P09874); experiment: In vitro scintillation proximity assay (SPA) for PARP-1 inhibitory activity; type: biochemical; conditions: nicked DNA activated PARP-1, [3H]-NAD+, biotinylated histones; tested between 10^-5 M and 3x10^-9 M; read-out: in vitro SPA assay PARP-1 pIC50 (converted)
T1 construct: purchased Trevigen
T1 sequence (P09874 whole entry): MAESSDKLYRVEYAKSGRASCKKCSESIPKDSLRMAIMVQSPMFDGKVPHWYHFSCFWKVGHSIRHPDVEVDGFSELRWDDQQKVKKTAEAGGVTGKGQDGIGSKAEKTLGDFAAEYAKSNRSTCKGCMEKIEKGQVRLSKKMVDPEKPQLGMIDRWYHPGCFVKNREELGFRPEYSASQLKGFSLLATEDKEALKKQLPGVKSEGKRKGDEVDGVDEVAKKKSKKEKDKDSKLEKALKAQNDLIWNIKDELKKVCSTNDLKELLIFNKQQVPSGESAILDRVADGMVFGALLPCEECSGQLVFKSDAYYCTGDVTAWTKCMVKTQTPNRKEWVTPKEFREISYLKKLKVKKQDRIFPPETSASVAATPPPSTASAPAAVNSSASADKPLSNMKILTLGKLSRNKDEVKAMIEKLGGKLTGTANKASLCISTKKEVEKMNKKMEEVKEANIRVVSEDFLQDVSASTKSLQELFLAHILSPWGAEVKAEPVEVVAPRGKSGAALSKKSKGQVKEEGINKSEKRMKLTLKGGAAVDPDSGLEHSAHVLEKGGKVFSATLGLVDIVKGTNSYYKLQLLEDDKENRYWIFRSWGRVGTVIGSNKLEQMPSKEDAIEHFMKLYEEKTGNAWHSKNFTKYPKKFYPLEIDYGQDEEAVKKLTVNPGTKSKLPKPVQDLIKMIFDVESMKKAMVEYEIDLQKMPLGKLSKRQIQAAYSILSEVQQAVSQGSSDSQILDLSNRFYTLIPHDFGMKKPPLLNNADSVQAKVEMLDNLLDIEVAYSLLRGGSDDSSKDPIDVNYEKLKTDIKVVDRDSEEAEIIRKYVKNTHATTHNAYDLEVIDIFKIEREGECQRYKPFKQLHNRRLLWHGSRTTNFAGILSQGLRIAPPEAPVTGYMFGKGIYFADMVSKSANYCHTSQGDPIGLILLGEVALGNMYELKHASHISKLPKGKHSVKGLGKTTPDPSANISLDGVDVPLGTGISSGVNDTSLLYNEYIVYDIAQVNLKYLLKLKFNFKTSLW
Protocol: C.1. In Vitro Scintillation Proximity Assay (SPA) for PARP-1 Inhibitory Activity
Compounds of the present invention were tested in an in vitro assay based on SPA technology (proprietary to GE healthcare).
In principle, the assay relies upon the well established SPA technology for the detection of poly(ADP-ribosyl)ation of biotinylated target proteins, i.e histones. This ribosylation is induced using nicked DNA activated PARP-1 enzyme and [^3H]-nicotinamide adenine dinucleotide ([^3H]-NAD^+) as ADP-ribosyl donor.
Histones (type II-A, supplier: Sigma) were biotinylated using the biotinylation kit of Amersham and stored aliquoted at −20° C. A stock solution of 100 mg/ml SPA poly(vinyl toluene) (PVT) beads (supplier: Amersham) was made in PBS. A stock solution of 61.6 nM [^3H]-NAD^+ was made by adding [^3H]-NAD^+ (0.1 mCi/ml, supplier: Perkin Elmer) to incubation buffer (50 mM Tris/HCl, pH 8; 0.2 mM DTT; 4 mM MgCl2). A solution of 4 mM NAD^+ (supplier: Sigma) was made. Human PARP-1 enzyme was obtained from Trevigen. Biotinylated histones and PVT-SPA beads were mixed and pre-incubated for 30 min. at room temperature. PARP-1 enzyme (concentration was lot dependent) was mixed with the nicked DNA and the mixture was pre-incubated for 30 min. at 4° C. Equal parts of this histones/PVT-SPA beads solution and PARP-1 enzyme/DNA solution were mixed and 75 μl of this mixture together with 1 μl of compound in DMSO and 25 μl of [^3H]-NAD^+ was added per well into a 96-well microtiterplate. The final concentrations in the incubation mixture were 2 μg/ml for the biotinylated histones, 2 mg/ml for the PVT-SPA beads, 0.25 μg/ml for the nicked DNA and between 0.1-0.2 μg/ml for the PARP-1 enzyme. After incubation of the mixture for 20 min. at room temperature, the reaction was terminated by adding 100 μl of 4 mM NAD^+ in water (final concentration 2 mM) and plates were mixed. The beads were sedimented by centrifugation (10 min, 800 rpm). and plates transferred to a TopCountNXT™ (Packard) for scintillation counting, values were expressed as counts per minute (cpm). For each experiment, controls (containing PARP-1 enzyme and DMSO without compound), a blank incubation (containing DMSO but no PARP-1 enzyme, no DNA or compound) and samples (containing PARP-1 enzyme, DNA and compound dissolved in DMSO) were run in parallel. All compounds tested were dissolved and eventually further diluted in DMSO. A dose-response curve was made wherein the compounds were tested at concentrations between 10^−5M and 3×10^−9M. In each test, the blank value was subtracted from both the control and the sample values. The control sample represented maximal PARP-1 enzyme activity. For each sample, the amount of cpm was expressed as a percentage of the mean cpm value of the controls. When appropriate, IC50-values (concentration of the drug, needed to reduce the PARP-1 enzyme activity to 50% of the control) were computed using linear interpolation between the experimental points just above and below the 50% level. Herein the effects of test compounds are expressed as pIC50 (the negative log value of the IC50-value). As a reference compound, 4-amino-1,8-naphthalimide was included to validate the SPA assay.

TANK-2 enzyme = target: T2, TANK-2 enzyme (Homo sapiens, UniProt Q9H2K2); experiment: In vitro scintillation proximity assay (SPA) for TANK-2 inhibitory activity; type: biochemical; conditions: auto-poly(ADP-ribosyl)ation, Ni flash plates; 96-well results if available, otherwise 384-well; tested between 10^-5 M and 3x10^-8 M; read-out: in vitro SPA assay TANK-2 pIC50 (converted)
T2 construct: made in house
T2 sequence (Q9H2K2 1-1166): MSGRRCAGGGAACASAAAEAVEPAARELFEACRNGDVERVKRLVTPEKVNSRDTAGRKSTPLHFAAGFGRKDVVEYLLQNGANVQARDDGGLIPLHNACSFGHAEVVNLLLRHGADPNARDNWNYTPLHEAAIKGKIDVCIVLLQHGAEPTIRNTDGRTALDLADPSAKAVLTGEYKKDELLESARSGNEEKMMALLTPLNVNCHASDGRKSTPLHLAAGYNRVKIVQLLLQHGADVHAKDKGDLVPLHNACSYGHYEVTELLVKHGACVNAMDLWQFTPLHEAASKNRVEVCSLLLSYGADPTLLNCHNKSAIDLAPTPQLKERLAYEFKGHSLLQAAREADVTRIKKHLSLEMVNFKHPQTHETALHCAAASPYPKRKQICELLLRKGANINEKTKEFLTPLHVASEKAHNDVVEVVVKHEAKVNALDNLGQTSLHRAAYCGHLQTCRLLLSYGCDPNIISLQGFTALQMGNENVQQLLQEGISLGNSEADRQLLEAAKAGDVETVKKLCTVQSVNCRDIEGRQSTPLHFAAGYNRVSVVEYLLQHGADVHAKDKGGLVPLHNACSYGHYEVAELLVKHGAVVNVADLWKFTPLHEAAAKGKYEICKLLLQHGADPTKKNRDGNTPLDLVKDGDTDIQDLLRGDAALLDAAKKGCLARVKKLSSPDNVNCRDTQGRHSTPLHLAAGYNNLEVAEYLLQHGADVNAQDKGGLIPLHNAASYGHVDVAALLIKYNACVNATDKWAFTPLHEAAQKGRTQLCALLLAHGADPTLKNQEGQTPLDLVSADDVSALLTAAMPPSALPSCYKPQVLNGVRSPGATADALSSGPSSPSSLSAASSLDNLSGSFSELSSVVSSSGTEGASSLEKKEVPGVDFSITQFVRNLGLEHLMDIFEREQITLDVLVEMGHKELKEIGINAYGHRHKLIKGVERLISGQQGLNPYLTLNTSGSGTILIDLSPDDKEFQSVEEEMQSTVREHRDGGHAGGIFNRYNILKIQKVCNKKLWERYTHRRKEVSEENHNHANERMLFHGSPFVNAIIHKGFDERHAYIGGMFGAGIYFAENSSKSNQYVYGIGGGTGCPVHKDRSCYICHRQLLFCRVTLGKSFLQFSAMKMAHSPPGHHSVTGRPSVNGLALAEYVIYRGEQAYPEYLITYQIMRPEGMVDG
Protocol: C.2. In Vitro Scintillation Proximity Assay (SPA) for TANK-2 Inhibitory Activity
Compounds of the present invention were tested in an in vitro assay based on SPA technology with Ni Flash plates (96 or 384 well).
In principle, the assay relies upon SPA technology for the detection of auto-poly(ADP-ribosyl)ation of TANK-2 protein using [^3H]-nicotinamide adenine dinucleotide ([^3H]-NAD^+) as ADP-ribosyl donor.
A stock solution of 100 nM [^3H]-NAD^+/NAD (0.1 mCi/ml, supplier: Perkin Elmer) and 0.25 mM NAD (Sigma) was made in assay buffer (60 mM Tris/HCl, pH 7.4; 0.9 mM DTT; 6 mM MgCl2). The TANK-2 enzyme was produced as described in EP1238063. 60 μl of assay buffer, together with 1 μl of compound in DMSO, 20 μl of [^3H]-NAD^+/NAD and 20 μl of TANK-2 enzyme (final concentration 8 μg/ml) was added per well into a 96-well Ni-coated flash plate (Perkin Elmer). After incubation of the mixture for 120 min. at room temperature, the reaction was terminated by adding 60 μl of stopsolution (42.6 mg NAD in 6 ml H2O). The plates were covered with a plate sealer and placed in a TopCountNX™ (Packard) for scintillation counting. Values were expressed as counts per minute (cpm). For each experiment, controls (containing TANK-2 enzyme and DMSO without compound), a blank incubation (containing DMSO but no TANK-2 enzyme or compound) and samples (containing TANK-2 enzyme and compound dissolved in DMSO) were run in parallel. All compounds tested were dissolved and eventually further diluted in DMSO. […] In each test, the blank value was subtracted from both the control and the sample values. The control sample represented maximal TANK-2 enzyme activity. For each sample, the amount of cpm was expressed as a percentage of the mean cpm value of the controls. When appropriate, IC50-values (concentration of the drug, needed to reduce the TANK-2 enzyme activity to 50% of the control) were computed using linear interpolation between the experimental points just above and below the 50% level. Herein the effects of test compounds are expressed as pIC50 (the negative log value of the IC50-value). As reference compounds, 3-aminobenzamide and 4-amino-1,8-naphtalimide were included to validate the SPA assay. Herein the assay was described using 96-well plates. In the assay using 384-well plates the same final concentrations were used and volumes were adapted.

SMILES | melting point | IC50 (Human PARP-1 enzyme) | IC50 (TANK-2 enzyme)
CCc1cc2ccc(CCCN3CCN(c4ccc(C#N)cn4)CC3)cc2[nH]c1=O (as salt: HCl) [Compound 8] | 174 °C |  | 
CCc1cc2c(OC)cc(CN3CCN(c4ccccc4OC)CC3)cc2[nH]c1=O [Compound 64] | 80 °C | 3.02 nM | 4470 nM
CCc1cc2ccc(CN3CCN(c4ccccn4)CC3)cc2[nH]c1=O [Compound 2] | 252 °C | 0.605 nM | 687 nM
CCc1cc2ccc(C(CO)N3CCOCC3)cc2[nH]c1=O (stereo not shown) [Compound 5] |  | 82.8 nM | 1440 nM
CCc1cc2ccc(CN3CCN(c4ccc(C(F)(F)F)cn4)CC3)cc2[nH]c1=O [Compound 22] |  | 1.21 nM | 368 nM
Cc1cc2ccc(C(C)N3CCCCC3)cc2[nH]c1=O (stereo not shown) [Compound 53] |  | 49.8 nM | > 10000 nM
CCc1cc2ccc(CN3CCN(c4ccccc4Cl)CC3)cc2[nH]c1=O [Compound 18] |  | 0.566 nM | 1930 nM
Cc1cc2ccc(C(C)N3CCC(c4ccc(Cl)cc4)CC3)cc2[nH]c1=O (stereo not shown) [Compound 50] |  | 1.5 nM | 2800 nM
CCc1cc2ccc(CN3CCN(c4ccncc4)CC3)cc2[nH]c1=O [Compound 35] |  | 1.14 nM | 398 nM
CCc1cc2ccc(CN3CCN(CCc4ccccc4)CC3)cc2[nH]c1=O [Compound 44] |  | 6.9 nM | 2190 nM
CCc1cc2ccc(CN3CCN(c4ccc(C#N)cn4)CC3)cc2[nH]c1=O [Compound 17] |  | 0.865 nM | 76.6 nM
Cc1cc2ccc(C(=O)N3CCN(c4ccccc4Cl)CC3)cc2[nH]c1=O [Compound 60] |  | 116 nM | > 10000 nM
Cc1cc2ccc(C(C)N3CC=C(c4ccccc4)CC3)cc2[nH]c1=O (stereo not shown) [Compound 51] |  | 1.49 nM | 1280 nM
CCc1cc2ccc(CN3CCN(CCOC)CC3)cc2[nH]c1=O [Compound 27] |  | 65 nM | 3960 nM
CCc1cc2ccc(CN3CCN(c4ccc(C)c(C)c4)CC3)cc2[nH]c1=O [Compound 40] |  | 25.6 nM | 649 nM
Cc1cc2ccc(C(C3CCCCC3)N3CC=C(c4ccccc4)CC3)cc2[nH]c1=O (stereo not shown) [Compound 73] |  | 1290 nM | 646 nM
CCc1cc2ccc(CN3CC=C(c4ccccc4)CC3)cc2[nH]c1=O [Compound 21] |  | 1.03 nM | 986 nM
CCc1cc2ccc(CN3C[C@@H]4C[C@H]3CN4c3ccc(Cl)cc3)cc2[nH]c1=O [Compound 28] |  | 34.8 nM | 650 nM
CCc1cc2ccc(CN3CCN(c4n[nH]c5ccccc45)CC3)cc2[nH]c1=O [Compound 37] |  | 5.68 nM | 232 nM
CCc1cc2ccc(CN3CCc4ccccc4C3)cc2[nH]c1=O [Compound 29] |  | 20 nM | 424 nM
CCc1cc2ccc(CNCCN3CCOCC3)cc2[nH]c1=O [Compound 19] |  | 4.6 nM | 5870 nM

More lines, now with the values ahead:

melting point | IC50 (Human PARP-1 enzyme) | IC50 (TANK-2 enzyme) | SMILES
 | 89.5 nM | 92.3 nM | CCc1cc2ccc(C(O)CN3CCN(c4ncccn4)CC3)cc2[nH]c1=O (stereo not shown) [Compound 32]
 | 2.58 nM | 1720 nM | CCc1cc2ccc(CN3CCN(c4ccc(Cl)c(Cl)c4)CC3)cc2[nH]c1=O [Compound 43]
 | 136 nM | 1100 nM | CCc1cc2ccc(CNCC3CCN(c4ncccn4)CC3)cc2[nH]c1=O [Compound 25]
 | 170 nM | 63.2 nM | CCc1cc2ccc(CCCN3CCN(c4ccc(C#N)cn4)CC3)cc2[nH]c1=O [Compound 8]
 | 61.4 nM | > 10000 nM | Cc1cc2ccc(C(C)N3CCN(C4CCCCC4)CC3)cc2[nH]c1=O (stereo not shown) [Compound 54]
 | 1.42 nM | 2420 nM | Cc1cc2ccc(C(C)N3CCN(c4ccc(F)cc4F)CC3)cc2[nH]c1=O (stereo not shown) [Compound 52]
 | 0.893 nM | 1300 nM | CCc1cc2ccc(CN3CCN(c4ccc(OC)cc4)CC3)cc2[nH]c1=O [Compound 42]
 | 1.48 nM | 4220 nM | Cc1cc2ccc(CN3CCN(c4ccccn4)CC3)cc2[nH]c1=O [Compound 57]
 | 2.55 nM | 222 nM | CCc1cc2ccc(CN3CCN(c4cnccn4)CC3)cc2[nH]c1=O [Compound 36]
